From patent US4950669A, “Methods and compositions for promoting growth of animals” (priority 1987, dated 1990) come the findings set out here.

The structures appear in SMILES notation. Where a SMILES comes first, the peptide text is derived from it.

A short description of experiment [1]: 44-day floor pen study in chickens (Example XIV). The format is in vivo. The settings on record: feed 30 g/ton. How it is done:
A 44-day floor pen study was conducted in which n-morpholinyl-β-benzoyl-propionamide was administered in chicken feed at concentrations of 1 ppm, 2.5 ppm, 5 ppm, 10 ppm, 20 ppm, 40 ppm and 60 ppm. One group of controls received no medication in its feed, while a second control group received Bacitracin MD in its feed at 30 g/ton. Birds were fed ad libitum. There were 5 replications per treatment, 50 birds per replication. Birds were weighed to determine weight gain and feed-to-gain ration after 35 days and 44 days.

Experiment [2] in a line: 21-day battery study in chickens (Example XIII). The format is in vivo. The settings on record: feed 30 g/ton. How it is done:
N-morpholinyl-β-benzoyl-propionamide was admixed with chicken feed at concentrations of 1.0 ppm, 7.5 ppm and 15 ppm. A 21-day battery study was conducted with the NMBP-containing feed. One group of controls was unmedicated, while a second control group received Bacitracin MD in its feed at 30 g/ton. The birds were fed ad libitum and weighed on days 7, 14 and 21. There were 10 birds per replication, 4 replications in controls and 2 replications per drug treatment.

Experiment [3] in a line: 28-day chicken growth study, feed or i.m. injection (Example XII). The settings on record: feed 30 g/ton. It counts as in vivo, chickens. How it is done: Portions of N-morpholinyl-β-benzoyl-propionamide were admixed with chicken feed at 1 mg/kg and a 2 mg/kg, respectively. Another portion was formulated into an injectable formulation at a concentration of 2% in polyethylene glycol. The N-morpholinyl-β-benzoylpropionamide was then administered to chickens, either by i.m. injection or in feed, over 28-day period. One group of controls received no medication, while another group of controls received Bacitracin MD in its feed at 30 g/ton. Those chickens receiving intramuscular injections were injected once a week with a dosage of either 1 mg/kg or 2 mg/kg, based on body weight. Birds were weighed on days 0, 14 and 28.

A short description of experiment [4]: 44-day floor-pen study in chickens (Example XV). The settings on record: feed 30 g/ton, 44 days. The format is in vivo. An excerpt:
There were 60 chickens per replication, 3 replications per treatment. One group of controls was unmedicated, while a second control group received Bacitracin in the feed at 30 g/ton.

With `CC[C@H](C)[C@H](N)C1=N[C@H](C(=O)N[C@@H](CC(C)C)C(=O)N[C@H](CCC(=O)O)C(=O)N[C@H](C(=O)N[C@H]2CCCCNC(=O)[C@H](CC(N)=O)NC(=O)[C@@H](CC(=O)O)NC(=O)[C@H](Cc3cnc[nH]3)NC(=O)[C@@H](Cc3ccccc3)NC(=O)[C@H]([C@@H](C)CC)NC(=O)[C@@H](CCCN)NC2=O)[C@@H](C)CC)CS1` [Bacitracin MD, reference compound] (HELM PEPTIDE1{[CC[C@H](C)[C@H](N)C1=N[C@H](C(=O)[*:2])CS1].L.[dE].I.K.[NCCC[C@@H](N[*:1])C(=O)[*:2]].I.[dF].H.[dD].N}$PEPTIDE1,PEPTIDE1,5:R3-11:R2$$$V2.0), the F/G is on record as 1.59 in experiment [1] (Day 35); 1.72 in experiment [1] (Day 44); 1.37 in experiment [2] (Day 7); 1.47 in experiment [2] (Day 14); 1.58 in experiment [2] (Day 21). Further, the “Weight Gain” value in experiment [1] (Day 35) was 1376 g; in experiment [1] (Day 44), 1909 g; in experiment [2] (Day 7), 337 g; in experiment [2] (Day 14) it was 707 g; in experiment [2] (Day 21), 1155 g; in experiment [3] (Day 14) it was 377.0 g. The “Weight Gain” value in experiment [3] (Day 28) was determined as 928.3 g. Further, in experiment [1] (house cleaned and disinfected just prior to study), the “growth results in words” value is listed as “lack of positive results”. The “Average Weight” value came to 98.6 g in experiment [3] (Day 0 (baseline)), 475.6 g in experiment [3] (Day 14) and 1026.9 g in experiment [3] (Day 28). Also, the “Feed Conversion” value in experiment [3] (Day 14) is on record as 1.37; in experiment [3] (Day 28) it was 1.58; in experiment [4], 1.75. Also, the “Average Live Bird Weight” value in experiment [4] came out at 2.11 kg.
